Patent publication US10913738B2 (BRISTOL-MYERS SQUIBB COMPANY, priority 2017, dated 2021)
Where two headings read alike, the source gives them in different places.

Tests used:
[1] = system: MLKL phosphorylation in HT29-L23 human colorectal adenocarcinoma cells; assay: MLKL Phosphorylation High-Content Assay; format: cell-based; settings: Homo sapiens
Procedure, shortened: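 Cells incubated six hours at 37° C., then phospho-MLKL (S358) immunostained overnight at 4° C. and imaged by high-content microscopy. Phosphorylation quantified as mean circ-ring average intensity ratio; IC50 and Ymax from 4-parameter logistic fits.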

[2] = biological target: T1, His-GST-TVMV-hRIPK1(1-324) (Homo sapiens, UniProt Q13546); assay: RIPK1 HTRF Binding Assay
T1 construct: The coding region of human RIPK1(1-324) flanked by NdeI site at 5′ end; made in house; host or cells: Spodoptera frugiperda (Sf9) insect cells, baculovirus
T1 sequence (Q13546 1-324): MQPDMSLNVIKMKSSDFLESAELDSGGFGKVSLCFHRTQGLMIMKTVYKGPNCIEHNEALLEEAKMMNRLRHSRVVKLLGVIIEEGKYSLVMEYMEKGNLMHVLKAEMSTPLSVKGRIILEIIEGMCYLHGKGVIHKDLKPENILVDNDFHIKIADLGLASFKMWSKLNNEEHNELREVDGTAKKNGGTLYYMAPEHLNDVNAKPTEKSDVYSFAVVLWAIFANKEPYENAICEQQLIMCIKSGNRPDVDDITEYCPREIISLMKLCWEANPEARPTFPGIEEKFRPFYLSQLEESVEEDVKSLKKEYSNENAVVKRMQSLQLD

[3] = x marks IC50 class <20 nM, read-out: pMLKL cell activity <20 nM
[4] = x marks IC50 class <20 nM, read-out: RIPK1 HTRF binding <20 nM
[5] = x marks IC50 class 20-200 nM, read-out: pMLKL cell activity 20-200 nM
[6] = x marks IC50 class 20-200 nM, read-out: RIPK1 HTRF binding 20-200 nM
[7] = x marks IC50 class >200 nM, read-out: pMLKL cell activity >200 nM
[8] = x marks IC50 class >200 nM, read-out: RIPK1 HTRF binding >200 nM

COc1ncc(-c2ccn3nc(N)nc3c2)cc1C(=O)NCc1ccccc1Sc1ccccc1CO [Example 151, 5-{2-amino-[1,2,4]triazolo[1,5-a]pyridin-7-yl}-N-[(2-{[2-(hydroxymethyl)phenyl]sulfanyl}phenyl)methyl]-2-methoxypyridine-3-carboxamide]
IC50 [1, 3]: < 20 nM
IC50 [2, 4]: < 20 nM

Cc1cnc(-c2ccn3nc(N)nc3c2)nc1C(=O)NCC[C@@H](O)c1ccc(Cl)cc1 [Example 408, (R)-2-(2-amino-[1,2,4]triazolo[1,5-a]pyridin-7-yl)-N-(3-(4-chlorophenyl)-3-hydroxypropyl)-5-methylpyrimidine-4-carboxamide]
IC50 [1, 5]: 20 to 200 nM
IC50 [2, 6]: 20 to 200 nM

COc1ncc(-c2ccn3nc(N)nc3c2)cc1C(=O)NCc1ccccc1OCC1CCCCC1 [Example 123, 5-{2-amino-[1,2,4]triazolo[1,5-a]pyridin-7-yl}-N-{[2-(cyclohexylmethoxy)phenyl]methyl}-2-methoxypyridine-3-carboxamide]
IC50 [1, 5]: 20 to 200 nM
IC50 [2, 4]: < 20 nM

Cc1ncc(-c2ccn3nc(N)nc3c2)cc1C(=O)NCc1cc(F)ccc1-c1ccn(C)n1 [Example 298, 5-(2-amino-[1,2,4]triazolo[1,5-a]pyridin-7-yl)-N-(5-fluoro-2-(1-methyl-1H-pyrazol-3-yl)benzyl)-2-methylnicotinamide]
IC50 [1, 7]: > 200 nM
IC50 [2, 6]: 20 to 200 nM

CCc1ncc(-c2ccn3nc(N)nc3c2)cc1C(=O)NCCC(C)c1ccccc1 (stereo not shown) [Example 66, 5-{2-Amino-[1,2,4]triazolo[1,5-a]pyridin-7-yl}-2-ethyl-N-(3-phenylbutyl)pyridine-3-carboxamide]
IC50 [1, 5]: 20 to 200 nM
IC50 [2, 4]: < 20 nM

Cc1ncc(-c2ccn3nc(N)nc3c2)cc1C(=O)NCC[C@H](O)c1ccc(Cl)cc1 [Example 225]
IC50 [1, 5]: 20 to 200 nM
IC50 [2, 6]: 20 to 200 nM

Cc1nc(C)c(-c2ccn3nc(N)nc3c2)cc1C(=O)NCc1c(F)cccc1OCC(F)(F)F [Example 291, 5-(2-amino-[1,2,4]triazolo[1,5-a]pyridin-7-yl)-N-(2-fluoro-6-(2,2,2-trifluoroethoxy)benzyl)-2,6-dimethylnicotinamide]
IC50 [1, 5]: 20 to 200 nM
IC50 [2, 6]: 20 to 200 nM

[2H]C([2H])([2H])Oc1ncc(-c2ccn3nc(N)nc3c2)cc1C(=O)NC([2H])([2H])c1cc(OC(F)(F)F)ccc1F [Example 93, 5-{2-amino-[1,2,4]triazolo[1,5-a]pyridin-7-yl}-N-{[2-fluoro-5-(trifluoromethoxy)phenyl] (deutero)methyl}-2-(deutero)methoxypyridine-3-carboxamide]
IC50 [1, 5]: 20 to 200 nM
IC50 [2, 4]: < 20 nM

CCOc1ncc(-c2ccn3nc(N)nc3c2)cc1C(=O)NCC1(c2ccccc2F)CC1 [Example 274, 5-{2-amino-[1,2,4]triazolo[1,5-a]pyridin-7-yl}-2-ethoxy-N-{[1-(2-fluorophenyl)cyclopropyl]methyl}pyridine-3-carboxamide]
IC50 [1, 5]: 20 to 200 nM
IC50 [2, 8]: > 200 nM

COc1nc(C)c(-c2ccn3nc(N)nc3c2)cc1C(=O)NCCc1cccc(OC(F)(F)F)c1 [Example 198, 5-{2-amino-[1,2,4]triazolo[1,5-a]pyridin-7-yl}-2-methoxy-6-methyl-N-{2-[3-(trifluoromethoxy)phenyl]ethyl}pyridine-3-carboxamide]
IC50 [1, 7]: > 200 nM
IC50 [2, 6]: 20 to 200 nM

COc1nc(C)c(-c2ccn3nc(N)nc3c2)cc1C(=O)NCc1ccccc1OCC1CCCC1 [Example 207, 5-{2-amino-[1,2,4]triazolo[1,5-a]pyridin-7-yl}-N-{[2-(cyclopentylmethoxy)phenyl]methyl}-2-methoxy-6-methylpyridine-3-carboxamide]
IC50 [1, 3]: < 20 nM
IC50 [2, 4]: < 20 nM

COc1nc(C)c(-c2ccn3nc(N)nc3c2)cc1C(=O)NCc1ccccc1COC(C)C [Example 330, 5-(2-amino-[1,2,4]triazolo[1,5-a]pyridin-7-yl)-N-(2-(isopropoxymethyl)benzyl)-2-methoxy-6-methylnicotinamide]
IC50 [1, 5]: 20 to 200 nM
IC50 [2, 4]: < 20 nM

COc1nc(C)c(-c2ccn3nc(N)nc3c2)cc1C(=O)NCc1cc(F)cc(F)c1OC1CCCOC1 (stereo not shown) [Example 350, 5-(2-amino-[1,2,4]triazolo[1,5-a]pyridin-7-yl)-N-(3,5-difluoro-2-((tetrahydro-2H-pyran-3-yl)oxy)benzyl)-2-methoxy-6-methylnicotinamide]
IC50 [1, 3]: < 20 nM
IC50 [2, 4]: < 20 nM

COc1ncc(-c2ccn3nc(N)nc3c2)cc1C(=O)N1CCCC(C(=O)Cc2ccccc2)C1 (stereo not shown) [Example 427, 1-(1-(5-(2-amino-[1,2,4]triazolo[1,5-a]pyridin-7-yl)-2-methoxynicotinoyl)piperidin-3-yl)-2-phenylethan-1-one]
IC50 [1, 5]: 20 to 200 nM
IC50 [2, 6]: 20 to 200 nM

[2H]C([2H])([2H])[C@@H](NC(=O)c1nc(-c2ccn3nc(N)nc3c2)cnc1OC)c1cc(OC(F)(F)F)ccc1F [Example 383, (R)-6-(2-amino-[1,2,4]triazolo[1,5-a]pyridin-7-yl)-N-(1-(2-fluoro-5-(trifluoromethoxy)phenyl)ethyl-2,2,2-d3)-3-methoxypyrazine-2-carboxamide]
IC50 [1, 7]: > 200 nM
IC50 [2, 4]: < 20 nM

Nc1nc2cc(-c3cnc(N)c(C(=O)NCc4ccccc4OCC4CC4)c3)ccn2n1 [Example 56, 2-Amino-5-{2-amino-[1,2,4]triazolo[1,5-a]pyridin-7-yl}-N-{[2-(cyclopropylmethoxy)phenyl]methyl}pyridine-3-carboxamide]
IC50 [1, 5]: 20 to 200 nM
IC50 [2, 4]: < 20 nM

Cc1nc(C)c(-c2ccn3nc(N)nc3c2)cc1C(=O)NCc1ccccc1OCC1CCCC1 [Example 186, 5-{2-amino-[1,2,4]triazolo[1,5-a]pyridin-7-yl}-N-{[2-(cyclopentylmethoxy)phenyl]methyl}-2,6-dimethylpyridine-3-carboxamide]
IC50 [1, 5]: 20 to 200 nM
IC50 [2, 4]: < 20 nM

COc1ncc(-c2ccn3nc(N)nc3c2)cc1C(=O)NC1CCCC(NC(=O)OC(C)(C)C)C1 (stereo not shown) [Example 426, tert-butyl (3-(5-(2-amino-[1,2,4]triazolo[1,5-a]pyridin-7-yl)-2-methoxynicotinamido)cyclohexyl)carbamate]
IC50 [1, 7]: > 200 nM
IC50 [2, 8]: > 200 nM

COc1nc(C)c(-c2ccn3nc(N)nc3c2)cc1C(=O)NCc1cccnc1OCC1CCCC1 [Example 8, 5-{2-Amino-[1,2,4]triazolo[1,5-a]pyridin-7-yl}-N-{[2-(cyclopentylmethoxy)pyridin-3-yl]methyl}-2-methoxy-6-methylpyridine-3-carboxamide]
IC50 [1, 5]: 20 to 200 nM
IC50 [2, 4]: < 20 nM

Cc1ncc(-c2ccn3nc(N)nc3c2)cc1C(=O)NCc1cc(F)cc(F)c1OC1CC1 [Example 308, 5-(2-amino-[1,2,4]triazolo[1,5-a]pyridin-7-yl)-N-(2-cyclopropoxy-3,5-difluorobenzyl)-2-methylnicotinamide]
IC50 [1, 5]: 20 to 200 nM
IC50 [2, 6]: 20 to 200 nM

Cc1ncc(-c2ccn3nc(N)nc3c2)cc1C(=O)NCc1ccccc1OC1CCC(C)C1 (stereo not shown) [Example 237, 5-{2-amino-[1,2,4]triazolo[1,5-a]pyridin-7-yl}-2-methyl-N-({2-[(3-methylcyclopentyl)oxy]phenyl}methyl)pyridine-3-carboxamide]
IC50 [1, 3]: < 20 nM
IC50 [2, 4]: < 20 nM

Cc1nc(C)c(-c2ccn3nc(N)nc3c2)cc1C(=O)NCc1ccccc1OC(C)C1CCCC1 (stereo not shown) [Example 16, 5-{2-Amino-[1,2,4]triazolo[1,5-a]pyridin-7-yl}-N-{[2-(1-cyclopentylethoxy)phenyl]methyl}-2,6-dimethylpyridine-3-carboxamide]
IC50 [1, 5]: 20 to 200 nM
IC50 [2, 4]: < 20 nM

[2H]C([2H])(NC(=O)c1cc(-c2ccn3nc(N)nc3c2)cnc1OC)c1cc(C(F)(F)F)ccc1F [Example 349, 5-(2-amino-[1,2,4]triazolo[1,5-a]pyridin-7-yl)-N-((2-fluoro-5-(trifluoromethyl)phenyl)methyl-d2)-2-methoxynicotinamide]
IC50 [1, 5]: 20 to 200 nM
IC50 [2, 6]: 20 to 200 nM

COc1nc(C)c(-c2ccn3nc(N)nc3c2)cc1C(=O)NCc1ccccc1OC(F)(F)F [Example 211, 5-{2-amino-[1,2,4]triazolo[1,5-a]pyridin-7-yl}-2-methoxy-6-methyl-N-{[2-(trifluoromethoxy)phenyl]methyl}pyridine-3-carboxamide]
IC50 [1, 5]: 20 to 200 nM
IC50 [2, 4]: < 20 nM

[2H]C([2H])([2H])[C@@H](NC(=O)c1cc(-c2ccn3nc(N)nc3c2)c(C)nc1C)c1cc(OC(F)(F)F)ccc1F [Example 286, (R)-5-(2-amino-[1,2,4]triazolo[1,5-a]pyridin-7-yl)-N-(1-(2-fluoro-5-(trifluoromethoxy)phenyl)ethyl-2,2,2-d3)-2,6-dimethylnicotinamide]
IC50 [1, 5]: 20 to 200 nM
IC50 [2, 4]: < 20 nM

COc1ncc(-c2ccn3nc(N)nc3c2)cc1C(=O)N(C)Cc1cccc(OC(F)(F)F)c1 [Example 162, 5-{2-amino-[1,2,4]triazolo[1,5-a]pyridin-7-yl}-2-methoxy-N-methyl-N-{[3-(trifluoromethoxy)phenyl]methyl}pyridine-3-carboxamide]
IC50 [1, 5]: 20 to 200 nM
IC50 [2, 4]: < 20 nM
